{"source": "patent US6951733B2", "about": "“Method for testing drug susceptibility of Mycobacterium tuberculosis” (priority 2000, dated 2005)", "key": {"[1]": {"tested_on": "13 M. tuberculosis pan-susceptible strains", "assay": "MIC determination on HSTB agar, susceptible strains", "format": "cell-based"}, "[2]": {"tested_on": "ten strains previously identified as INH-resistant", "assay": "microbe, parasite or virus in culture", "format": "cell-based, M. tuberculosis", "details": "Mycobacterium tuberculosis, HSTB agar; greater than 3.2 eight strains, 1.6 one strain"}, "[3]": {"tested_on": "strain H37Rv", "format": "cell-based, M. tuberculosis"}, "[4]": {"tested_on": "strain 9719", "format": "cell-based, M. tuberculosis", "details": "for Proportions (%%) of resistant bacteria as determined by agar plates containing the drug (μg/ml) 300 / Proportions (%%) of resistant bacteria as determined by agar plates containing the drug (μg/ml) 900 / Proportions (%%) of resistant bacteria as determined by agar plates containing the drug (μg/ml) 1200: strain 9719"}, "[5]": {"tested_on": "strain 9719", "assay": "microbe, parasite or virus in culture", "format": "cell-based, M. tuberculosis", "details": "read-out: MIC (μg/ml) BACTEC"}, "[6]": {"tested_on": "55 M. tuberculosis clinical isolates", "format": "cell-based"}, "[7]": {"details": "0% of resistant bacteria incorporated"}, "[8]": {"details": "10% of resistant bacteria incorporated"}, "[9]": {"details": "25% of resistant bacteria incorporated"}, "[10]": {"details": "50% of resistant bacteria incorporated"}, "[11]": {"details": "100% of resistant bacteria (resistant mutant)"}, "[12]": {"details": "strains Susceptible by the BACTEC 300 μg/ml"}, "[13]": {"details": "strains Susceptible by the BACTEC 900 μg/ml"}}, "note": "Where “and” joins values, the source holds several entries; their conditions need not be identical. Equal entries are not always repeated. Where two headings read alike, the source gives them in different places."}
{"smiles": "NNC(=O)c1ccncc1", "note": "[INH, isoniazid]", "values": [{"measurement": "critical concentration for detection of the high level of resistance", "setting": "[1]", "result": 1.0, "unit": "µg/mL"}, {"measurement": "critical concentration for detection of the low level of resistance", "setting": "[1]", "result": 0.2, "unit": "µg/mL"}, {"measurement": "MIC", "setting": "[2]", "result": "> 3.2", "unit": "µg/mL"}]}
{"smiles": "NC(=O)c1cnccn1", "note": "[PZA, pyrazinamide]", "values": [{"measurement": "MIC (μg/ml) Agar", "setting": "[3]", "result": "900 µg/mL and >1200 µg/mL"}, {"measurement": "growth in the agar medium with the drug", "setting": "[4]; pansusceptible strain 9719, all drug-concentrations (300, 900, 1200 μg/ml)", "result": "completely inhibited"}, {"measurement": "Proportions (%%) of resistant bacteria as determined by agar plates containing the drug (μg/ml) 300", "setting": "[4]; [7]", "result": 0, "unit": "%"}, {"measurement": "Proportions (%%) of resistant bacteria as determined by agar plates containing the drug (μg/ml) 900", "setting": "[4]; [7]", "result": 0, "unit": "%"}, {"measurement": "Proportions (%%) of resistant bacteria as determined by agar plates containing the drug (μg/ml) 1200", "setting": "[4]; [7]", "result": 0, "unit": "%"}, {"measurement": "Proportions (%%) of resistant bacteria as determined by agar plates containing the drug (μg/ml) 300", "setting": "[4]; [8]", "result": 13.8, "unit": "%"}, {"measurement": "Proportions (%%) of resistant bacteria as determined by agar plates containing the drug (μg/ml) 900", "setting": "[4]; [8]", "result": 8.6, "unit": "%"}, {"measurement": "Proportions (%%) of resistant bacteria as determined by agar plates containing the drug (μg/ml) 1200", "setting": "[4]; [8]", "result": 8.6, "unit": "%"}, {"measurement": "Proportions (%%) of resistant bacteria as determined by agar plates containing the drug (μg/ml) 300", "setting": "[4]; [9]", "result": 18.1, "unit": "%"}, {"measurement": "Proportions (%%) of resistant bacteria as determined by agar plates containing the drug (μg/ml) 900", "setting": "[4]; [9]", "result": 16.2, "unit": "%"}, {"measurement": "Proportions (%%) of resistant bacteria as determined by agar plates containing the drug (μg/ml) 1200", "setting": "[4]; [9]", "result": 16.5, "unit": "%"}, {"measurement": "Proportions (%%) of resistant bacteria as determined by agar plates containing the drug (μg/ml) 300", "setting": "[4]; [10]", "result": 35.9, "unit": "%"}, {"measurement": "Proportions (%%) of resistant bacteria as determined by agar plates containing the drug (μg/ml) 900", "setting": "[4]; [10]", "result": 36.9, "unit": "%"}, {"measurement": "Proportions (%%) of resistant bacteria as determined by agar plates containing the drug (μg/ml) 1200", "setting": "[4]; [10]", "result": 40.0, "unit": "%"}, {"measurement": "Proportions (%%) of resistant bacteria as determined by agar plates containing the drug (μg/ml) 300", "setting": "[4]; [11]", "result": 97.8, "unit": "%"}, {"measurement": "Proportions (%%) of resistant bacteria as determined by agar plates containing the drug (μg/ml) 900", "setting": "[4]; [11]", "result": 96.1, "unit": "%"}, {"measurement": "Proportions (%%) of resistant bacteria as determined by agar plates containing the drug (μg/ml) 1200", "setting": "[4]; [11]", "result": 86.2, "unit": "%"}, {"measurement": "MIC", "setting": "[5]; Mycobacterium tuberculosis, 9719, pH 6, strain 9719, 0% of resistant bacteria incorporated", "result": "≤ 100", "unit": "µg/mL"}, {"measurement": "MIC", "setting": "[5]; Mycobacterium tuberculosis, 9719, pH 6, strain 9719, 10% of resistant bacteria incorporated", "result": "> 900", "unit": "µg/mL"}, {"measurement": "MIC", "setting": "[5]; Mycobacterium tuberculosis, 9719, pH 6, strain 9719, 25% of resistant bacteria incorporated", "result": "> 900", "unit": "µg/mL"}, {"measurement": "MIC", "setting": "[5]; Mycobacterium tuberculosis, 9719, pH 6, strain 9719, 50% of resistant bacteria incorporated", "result": "> 900", "unit": "µg/mL"}, {"measurement": "Number of strains by the agar proportion method, 900 μg/ml Resistant", "setting": "[6]", "result": 27}, {"measurement": "Number of strains by the agar proportion method, 1200 μg/ml Resistant", "setting": "[6]", "result": "27 and 26"}, {"measurement": "Number of strains by the agar proportion method, 900 μg/ml Resistant", "setting": "[6]; [12]", "result": 0}, {"measurement": "Number of strains by the agar proportion method, 1200 μg/ml Resistant", "setting": "[6]; [12]", "result": 0}, {"measurement": "Number of strains by the agar proportion method, 900 μg/ml Resistant", "setting": "[6]; [13]", "result": 2}, {"measurement": "Number of strains by the agar proportion method, 1200 μg/ml Resistant", "setting": "[6]; [13]", "result": 1}]}
